Laboratory results published in patent US9108963B2, “Pyrazolopyridine, pyrazolopyrazine, pyrazolopyrimidine, pyrazolothiophene and pyrazolothiazole compounds as MGLUR4 allosteric potentiators, compositions, and methods of treating neurological dysfunction” (Vanderbilt University, priority 2010, dated 2015).

Key:
[1] = molecular target: mGluR4 (UniProt Q14833); assay: mGluR4 potentiation assay (Ca2+ or thallium flux fluorescence, agonist EC20); assay type: cell-based, human or rat; conditions: Table 3; read-out: mGlu4 EC50
Description: The disclosed compounds and compositions can be evaluated for their ability to act as a potentiator of metabotropic glutamate receptor activity, in particular mGluR4 activity, by any suitable known methodology known in the art. For example, Chinese Hamster Ovary (CHO) cells transfected with human mGluR4 or HEK cells co-transfected with rat mGluR4 and the G-protein regulated Inwardly Rectifying Potassium channel (GIRK) were plated in clear bottom assay plates for assay in a Hamamatsu FDSS Fluorometric Plate Reader. The cells were loaded with either a Ca2+-sensitive fluorescent dye or the thallium responsive dye and the plates were washed and placed into a suitable kinetic plate reader. For human mGluR4 assays, a fluorescence baseline was established for 3-5 seconds, the disclosed compounds were then added to the cells, and the response in cells was measured. Approximately two and a half minutes later, a concentration of mGluR4 orthosteric agonist (e.g. glutamate or L-AP4) eliciting approximately 20% (EC20) of the maximal agonist response was added to the cells, and the response was measured. Two minutes later, a concentration of mGluR4 agonist (e.g. glutamate or L-AP4) eliciting 80% (EC80) of the maximal agonist response was added to the cells, and the response was measured. For rat mGluR4/GIRK experiments, a baseline was established for approximately five seconds, disclosed compounds were added, and either an EC20 or EC80 concentration of agonist was added approximately two and one half minutes later.
The above described assay operated in two modes. In the first mode, a range of concentrations of the disclosed compounds are added to cells, followed by a single fixed concentration of agonist. If the compound acts as a potentiator, an EC50 value for potentiation and a maximum extent of potentiation by the compound at this concentration of agonist is determined by non-linear curve fitting. If the compound acts as a noncompetitive antagonist, an IC50 value is determined by non-linear curve fitting. In the second mode, several fixed concentrations of the disclosed compounds are added to various wells on a plate, followed by a range in concentrations of agonist for each concentration of disclosed compound. The EC50 values for the agonist at each concentration of compound are determined by non-linear curve fitting. A decrease in the EC50 value of the agonist with increasing concentrations of the sample compound (a leftward shift of the agonist concentration-response curve) is an indication of the degree of mGluR4 potentiation at a given concentration of the sample compound. A decrease in the maximal response of the agonist with increasing concentrations of the sample compounds, with or without a rightward shift in agonist potency, is an indication of the degree of noncompetitive antagonism at mGluR4. The second mode also indicates whether the sample compounds also affect the maximum response to mGluR4 to agonists.

[2] = molecular target: T1, mGluR5 (Rattus norvegicus, UniProt P31424); assay: mGluR5 negative allosteric modulation, decrease in response to non-maximal glutamate in HEK cells; assay type: cell-based; conditions: Table 3; read-out: mGlu5 IC50
T1 construct: expressed in transfected cells; host or cells: human embryonic kidney (HEK) cells
Text: Embodiments of the present invention are also mGluR5 negative allosteric modulators. Accordingly, in one aspect, the invention relates to compounds that are also useful as negative allosteric modulators of the metabotropic glutamate receptor subtype 5 (mGluR5). Negative allosteric modulators are non-competitive antagonists and can include a range of maximal antagonist activity from partial antagonists to inverse agonists. In one aspect, the present invention relates to compounds that allosterically modulate mGluR5 receptor activity, affecting the sensitivity of mGluR5 receptors to agonists without acting as orthosteric agonists themselves. […] The compounds of the invention can be useful in the treatment neurological and psychiatric disorders associated with glutamate dysfunction and other diseases in which metabotropic glutamate receptors are involved, as further described herein. […] In further aspect, the human embryonic kidney cells are transfected with human mGluR5. In yet a further aspect, human embryonic kidney cells are transfected with mGluR5 of a mammal.
In further aspect, the human embryonic kidney cells are transfected with human mGluR5. In yet a further aspect, human embryonic kidney cells are transfected with mGluR5 of a mammal.

T1 sequence (P31424 21-1203): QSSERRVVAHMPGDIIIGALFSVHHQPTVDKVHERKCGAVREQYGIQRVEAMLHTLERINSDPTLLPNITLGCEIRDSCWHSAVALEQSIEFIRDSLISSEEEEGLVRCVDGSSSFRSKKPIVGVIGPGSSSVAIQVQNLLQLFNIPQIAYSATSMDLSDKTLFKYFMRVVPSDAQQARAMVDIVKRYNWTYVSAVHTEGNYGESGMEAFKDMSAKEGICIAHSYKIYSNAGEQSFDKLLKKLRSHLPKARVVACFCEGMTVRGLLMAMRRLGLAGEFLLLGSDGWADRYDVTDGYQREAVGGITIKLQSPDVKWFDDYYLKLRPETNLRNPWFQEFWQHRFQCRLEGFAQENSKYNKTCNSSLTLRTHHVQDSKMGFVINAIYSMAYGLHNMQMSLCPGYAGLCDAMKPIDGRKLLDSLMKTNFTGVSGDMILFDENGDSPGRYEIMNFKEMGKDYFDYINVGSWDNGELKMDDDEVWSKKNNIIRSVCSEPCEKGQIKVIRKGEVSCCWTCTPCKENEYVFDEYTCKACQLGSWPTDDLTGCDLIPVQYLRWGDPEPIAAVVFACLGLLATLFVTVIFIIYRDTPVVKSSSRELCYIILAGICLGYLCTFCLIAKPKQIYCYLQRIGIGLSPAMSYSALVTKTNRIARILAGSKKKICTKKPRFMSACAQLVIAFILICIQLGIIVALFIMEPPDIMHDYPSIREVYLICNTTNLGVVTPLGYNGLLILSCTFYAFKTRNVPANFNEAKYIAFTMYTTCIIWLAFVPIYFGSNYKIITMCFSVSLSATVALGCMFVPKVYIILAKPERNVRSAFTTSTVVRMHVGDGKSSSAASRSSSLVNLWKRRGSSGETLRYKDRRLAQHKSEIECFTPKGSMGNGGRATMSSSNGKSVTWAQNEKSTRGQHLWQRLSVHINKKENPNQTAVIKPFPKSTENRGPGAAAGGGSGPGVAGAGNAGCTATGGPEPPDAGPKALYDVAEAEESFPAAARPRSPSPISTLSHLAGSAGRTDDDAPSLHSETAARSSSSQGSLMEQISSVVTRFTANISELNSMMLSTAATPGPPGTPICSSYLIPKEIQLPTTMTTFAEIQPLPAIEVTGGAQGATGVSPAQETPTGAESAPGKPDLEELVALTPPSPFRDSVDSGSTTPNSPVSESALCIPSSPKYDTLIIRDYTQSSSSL

| EC50 [1] | IC50 [2] | SMILES |
| --- | --- | --- |
| 25.5 nM | 670 nM | COc1ccnc(Nc2ccc(Nc3n[nH]c4cccnc34)cc2Cl)n1 [Example 123, 2-chloro-N1-(4-methoxypyrimidin-2-yl)-N4-(1H-pyrazolo[4,3-b]pyridin-3-yl)benzene-1,4-diamine] |
| 19.4 nM | 970 nM | Cc1ccnc(Nc2ccc(Nc3n[nH]c4cccnc34)cc2Cl)c1 [Example 129, 2-chloro-N1-(4-methylpyridin-2-yl)-N4-(1H-pyrazolo[4,3-b]pyridin-3-yl)benzene-1,4-diamine] |
